# Laboratory results from US20230270713A1, “Administration of Resiniferatoxin For Treatment of Bladder Pain or Bladder Cancer” (Sorrento Therapeutics, Inc., priority 2020, published 2023).
# Entries after “also recorded” stand apart in the source; their conditions may differ.
# Assays:
# Type in all cases: in vivo, cat
# [1] = system: S1 and S2 DRG neurons expressing CGRP and SP; test: CGRP and SP positive neurons in S1 and S2 dorsal root ganglia of cats (IHC)
# Protocol: At day 14 the cats were anesthetized and perfused with saline followed by 10% formalin. After confirmation of successful euthanasia, lumbar and sacral segments of the spinal cord with corresponding dorsal spinal ganglia, the urinary bladder and urethra were harvested and tissues were prepared for immunohistochemistry.
# Previous studies have shown that TRPV1-immunoreactive axons co-express Calcitonin gene-related peptide (CGRP) and substance P (SP) (See, e.g., Sharrad et al. (2015) Neurosci. Lett., 599: 164-171; Bae et al. (2004) J. Comp. Neurol. 478: 62-71). Since feline bladder connective tissue, smooth muscle, and cell bodies of S2 DRG express CGRP+ and SP+ axons, expression of CGRP and SP were used in these studies to identify the majority of TRPV1 axons innervating the cat bladder and TRPV1+ cell bodies in cat S2 dorsal root ganglia (DRG).
# The percent of cell bodies from S1 and S2 DRG expressing SP and CGRP from feline bladders after intravesical application of either control (saline) or RTX (5, 25 or 50 mcg) was also examined using immunohistochemistry and confocal laser microscopy as described above. […] CGRP positive cell bodies were small to medium-size.
# [2] = system: cats with FIC (Feline Idiopathic Cystitis); test: Cystitis Events Survey in cats with Feline Idiopathic Cystitis; details: for Cystitis Improvement ≥2 Point, cats n/N / Cystitis Improvement ≥3 Point, cats n/N / Cystitis Improvement ≥2 Point, percent of cats / Cystitis Improvement ≥3 Point, percent of cats: Day 28
# From the text: The Cystitis Events Survey consists a 5-point scale, ranging from 0=normal cat to 5=very severe sign of cystitis. Clinical signs of cystitis included in this survey are: increased frequency of urination; straining while urinating; crying out/vocalizing while urinating; presence of blood in urine; urination outside of litter box; and increased grooming around perineum.
# The use of the Cystitis Events Survey was exploratory, and no strict definition of success was applied to the results. However, and based on published literature, the results were described as follows: (1) percentage of cats per cohort with an average improvement of 2 or more points and no increase in any individual score on Day 28; and (2) percentage of cats per cohort with an average improvement of 3 or more points and no increase in any individual score on Day 28.
# […] Intravesical instillation: After the cat has reached an adequate anesthesia level, the perineal area was prepared using a standard aseptic technique. After preparation, a urinary catheter (type and size decided on a case by case basis) was placed using aseptic technique. Then, the urinary bladder was emptied and flushed with 20 ml of sterile saline. Once the flush solution was removed, the RTX solution was infused through the urinary catheter over 2 minutes. Once the total volume of the solution is infused, the solution was left in the urinary bladder for 20 min. At the end of this period the IVP (investigational veterinary product) solution was removed. Finally, the urinary catheter was removed, and the perineal area was flushed with 20 ml of saline. The total amount of solution removed from the bladder was recorded.
# 24 cats were treated and the cohorts and their respective IVP treatments are described in the table 9 below. The cohorts were populated and dosed sequentially. Cats enrolled in Cohorts 2, 3 and 4 were dosed at least 3 days after the previous cohort closed.
# [3] = Safety monitoring in FIC cats
# Protocol: As a way of monitoring the safety of the experiment for the enrolled cats, a physical examination was performed on the cats on Days 14 and 28. Measurements for body weight, body temperature, heart rate and respiratory rate were recorded. Body weight was collected for all cohorts, while the remaining variables were collected for Cohort 1, which received the highest total dose of RTX (25 μg/25 mL). […] Results were also collected for complete blood count (CBC), serum chemistry, urinalysis and culture.
# [4] = 6.25 μg (0.25 μg/mL), Day 0, n 6
# [5] = 6.25 μg (0.25 μg/mL), Day 28, n 6
# [6] = 12.5 μg (0.5 μg/mL), Day 0, n 6
# [7] = 12.5 μg (0.5 μg/mL), Day 28, n 5
# [8] = 12.5 μg (1.25 μg/mL), Day 0, n 6
# [9] = 12.5 μg (1.25 μg/mL), Day 28, n 6
compound,measurement,setting,value
"C=C(C)[C@]12C[C@@H](C)[C@@]34O[C@](Cc5ccccc5)(O[C@@H]1[C@@H]3C=C(COC(=O)Cc1ccc(O)c(OC)c1)C[C@]1(O)C(=O)C(C)=C[C@@H]41)O2 [RTX, resiniferatoxin]",number of neurons (cell bodies) expressing CGRP and SP in S2 DRG,"[1]; cat, single 25 mcg intravesical, vs saline control",does not decrease; also recorded: did not modify
same,percentage of CGRP+ neurons in S1 DRG and S2 DRG,"[1]; cats, 5, 25 and 50 mcg, 14 days post treatment, vs control",did not affect
same,percentage of cell bodies expressing CGRP and SP in S1 and S2 DRG,"[1]; cats, 5, 25 or 50 mcg intravesical, vs control",did not affect
same,percentage of SP+ neurons in S1 DRG and S2 DRG,"[1]; cats, 14 days post-treatment",comparable to the control
same,"cystitis events survey, Maximum",[2]; [4],18.0
same,"cystitis events survey, Mean",[2]; [4],13.00
same,"cystitis events survey, Median",[2]; [4],12.00
same,"cystitis events survey, Minimum",[2]; [4],10.0
same,"cystitis events survey, Maximum",[2]; [5],14.0
same,"cystitis events survey, Mean",[2]; [5],8.33
same,"cystitis events survey, Median",[2]; [5],8.00
same,"cystitis events survey, Minimum",[2]; [5],3.0
same,"Cystitis Improvement ≥2 Point, cats n/N",[2]; 6.25 μg/25 mL (Cohort 2),4/6
same,"Cystitis Improvement ≥3 Point, cats n/N",[2]; 6.25 μg/25 mL (Cohort 2),2/6
same,"cystitis events survey, Maximum",[2]; [6],13.0
same,"cystitis events survey, Mean",[2]; [6],11.33
same,"cystitis events survey, Median",[2]; [6],11.00
same,"cystitis events survey, Minimum",[2]; [6],10.0
same,"cystitis events survey, Maximum",[2]; [7],7.0
same,"cystitis events survey, Mean",[2]; [7],5.20
same,"cystitis events survey, Median",[2]; [7],5.00
same,"cystitis events survey, Minimum",[2]; [7],3.0
same,"cystitis events survey, Maximum",[2]; [8],16.0
same,"cystitis events survey, Mean",[2]; [8],12.5
same,"cystitis events survey, Median",[2]; [8],12.50
same,"cystitis events survey, Minimum",[2]; [8],9.0
same,"cystitis events survey, Maximum",[2]; [9],8.0
same,"cystitis events survey, Mean",[2]; [9],5.33
same,"cystitis events survey, Median",[2]; [9],6.00
same,"cystitis events survey, Minimum",[2]; [9],3.0
same,"Cystitis Improvement ≥2 Point, cats n/N",[2]; 12.5 μg/10 mL (Cohort 4),6/6
same,"Cystitis Improvement ≥2 Point, percent of cats",[2]; 12.5 μg/10 mL (Cohort 4),(100%)
same,"Cystitis Improvement ≥3 Point, cats n/N",[2]; 12.5 μg/10 mL (Cohort 4),6/6
same,"Cystitis Improvement ≥3 Point, percent of cats",[2]; 12.5 μg/10 mL (Cohort 4),(100%)
same,"Cystitis Improvement ≥2 Point, cats n/N",[2]; 12.5 μg/25 mL (Cohort 3),5/5
same,"Cystitis Improvement ≥2 Point, percent of cats",[2]; 12.5 μg/25 mL (Cohort 3),(100%)
same,"Cystitis Improvement ≥3 Point, cats n/N",[2]; 12.5 μg/25 mL (Cohort 3),5/5
same,"Cystitis Improvement ≥3 Point, percent of cats",[2]; 12.5 μg/25 mL (Cohort 3),(100%)
same,"cystitis events survey, Maximum","[2]; 25 μg (1 μg/mL), Day 0, n 6",22.0
same,"cystitis events survey, Mean","[2]; 25 μg (1 μg/mL), Day 0, n 6",16.67
same,"cystitis events survey, Median","[2]; 25 μg (1 μg/mL), Day 0, n 6",16.50
same,"cystitis events survey, Minimum","[2]; 25 μg (1 μg/mL), Day 0, n 6",11.0
same,"cystitis events survey, Maximum","[2]; 25 μg (1 μg/mL), Day 28, n 5",7.0
same,"cystitis events survey, Mean","[2]; 25 μg (1 μg/mL), Day 28, n 5",4.40
same,"cystitis events survey, Median","[2]; 25 μg (1 μg/mL), Day 28, n 5",4.00
same,"cystitis events survey, Minimum","[2]; 25 μg (1 μg/mL), Day 28, n 5",2.0
same,"Cystitis Improvement ≥2 Point, cats n/N",[2]; 25 μg/25 mL (Cohort 1),4/5
same,"Cystitis Improvement ≥2 Point, percent of cats",[2]; 25 μg/25 mL (Cohort 1),(80%)
same,"Cystitis Improvement ≥3 Point, cats n/N",[2]; 25 μg/25 mL (Cohort 1),4/5
same,"Cystitis Improvement ≥3 Point, percent of cats",[2]; 25 μg/25 mL (Cohort 1),(80%)
same,"complete blood count (CBC), serum chemistry, urinalysis and culture",[3],No significant changes were observed
same,Adverse events in other cohorts,[3]; Cohorts 2-4,considered unrelated to the treatment or not serious
same,"body weight, body temperature, heart rate and respiratory rate","[3]; Days 14 and 28, body weight all cohorts, other variables Cohort 1 (25 μg/25 mL)",No clinically significant changes were observed
same,Tolerability,"[3]; all doses, at administration and through 28-day follow-up",overall well tolerated
same,serious adverse events considered related to the treatment,[3]; death of a Cohort 1 cat (25 μg/25 mL),One serious adverse event
